In ChEMBL document CHEMBL5260833, “An overview of quinazolines: Pharmacological significance and recent developments” (Eur J Med Chem, 2018):

Tests used:
[1] = Inhibition of HCV RNA IRES IIa by FRET assay; parameters: species or system Hepacivirus hominis
Homo sapiens [2] = species: Homo sapiens; test: Immunosuppressive activity in human B cell; type: functional, organism-based
Homo sapiens [3] = species: Homo sapiens; test: Immunosuppressive activity in human T cell; type: functional, organism-based
HeLa = test: Anticancer activity against human HeLa cells assessed as cell growth inhibition incubated for 24 hrs by MTT assay; type: functional, cell-based
MDA-MB-231 = test: Anticancer activity against human MDA-MB-231 cells assessed as cell growth inhibition incubated for 24 hrs by MTT assay; type: functional, cell-based; details: MDA-MB-231, 24 h
[4] = Therapeutic index, ratio of IC50 for antiviral activity against HIV infected in human H9 cells to EC50 for antiviral activity against HIV infected in human H9 cells; type: toxicity, cell-based; details: human immunodeficiency virus, H9 cells infected with HIV; read-out: Ratio IC50/EC50
[5] = tested on: Human immunodeficiency virus; test: Antiviral activity against HIV infected in human H9 cells; type: functional, organism-based; details: Human immunodeficiency virus 1, H9
Oryctolagus cuniculus = test: Antihypertensive activity in po dosed rabbit assessed as decrease in 30mmhg of systolic blood pressure measured after 4 to 6 hrs; type: functional; details: time 4-6 hrs
Mus musculus [6] = test: Anticonvulsant activity in ip dosed mouse assessed as reduction in tonus phase; type: functional
Mus musculus [7] = test: Anticonvulsant activity in ip dosed mouse assessed as reduction in clonus phase; type: functional
Mus musculus [8] = species: Mus musculus; test: Sedative hypnotic activity in mouse; type: functional; parameters: concentration or dose not given beside the values
Rattus norvegicus [9] = test: Antiinflammatory activity in rat at assessed as reduction in paw edema at 200 mg/kg relative to control; type: functional
CCRF-CEM = test: Anticancer activity against human CCRF-CEM cell assessed as cell growth inhibition measured after 120 hrs; type: functional, cell-based
WIL2 = test: Anticancer activity against human WIL2 cell assessed as cell growth inhibition measured after 120 hrs; type: functional, cell-based; details: WIL2, 120 h
[10] = CNS toxicity in po dosed mouse assessed as depression in CNS; type: organism-based; details: in vivo
Mus musculus [11] = test: Sedative activity in mouse assessed as sleeping time at 300 mg/kg, ip; type: functional
[12] = Antiviral activity against Gomphrena mosaic virus relative to control; type: functional, Gomphrena mosiac virus; parameters: concentration or dose not given beside the values
Mus musculus [13] = test: Analgesic activity in phenylbenzoquinone induced mouse assessed as reduction in writhing at 10 mg/kg, po measured after 1 hrs by writhing test relative to control; type: functional
Mus musculus [14] = test: Analgesic activity in acetic acid peritonitis induced mouse assessed as reduction in writhing at 10 mg/kg, po measured after 1 hrs by writhing test relative to control; type: functional
[15] = tested on: Human immunodeficiency virus 2; test: Antiviral activity against HIV-2 infected in human MT4 cells assessed as protection against virus-induced cytotoxicity relative to control; type: functional; parameters: concentration or dose not given beside the values
[16] = tested on: Human immunodeficiency virus 1; test: Antiviral activity against HIV-1 infected in human MT4 cells assessed as protection against virus-induced cytotoxicity relative to control; type: functional; parameters: concentration or dose not given beside the values
Canis familiaris = test: Antiplatelet activity in iv dosed dog assessed as platelet aggregation; type: functional, organism-based; details: Canis lupus familiaris
Rattus norvegicus [17] = test: Antiinflammatory activity in carrageenan induced rat at assessed as reduction in paw edema 50 mg/kg, ip measured after […] relative to control; type: functional; parameters: scale not given: the % may be the effect or the level left
[18] = biological target: Histamine H2 receptor (Homo sapiens) (UniProt P25021); test: Inhibition of histamine h2 (unknown origin)
Chain of Histamine H2 receptor (Homo sapiens) (P25021 whole entry): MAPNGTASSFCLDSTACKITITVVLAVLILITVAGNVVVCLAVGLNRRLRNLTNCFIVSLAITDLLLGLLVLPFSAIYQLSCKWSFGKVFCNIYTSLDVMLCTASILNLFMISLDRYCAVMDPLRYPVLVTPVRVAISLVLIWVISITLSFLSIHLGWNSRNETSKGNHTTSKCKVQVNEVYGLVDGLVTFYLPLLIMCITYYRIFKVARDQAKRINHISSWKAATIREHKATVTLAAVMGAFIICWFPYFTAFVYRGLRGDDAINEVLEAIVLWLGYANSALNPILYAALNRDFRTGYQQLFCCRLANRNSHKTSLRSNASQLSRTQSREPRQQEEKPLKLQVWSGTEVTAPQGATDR

`CC1(C)NC(N)=Nc2ccccc21` showed an EC50 [1] of 420000 nM.
`C#CCN(Cc1ccc2nc(C)[nH]c(=O)c2c1)c1ccc(C(=O)N[C@@H](C[C@@H](F)C(=O)O)C(=O)O)cc1` gave an IC50 (Homo sapiens [2]) of 8.08 nM and an IC50 (Homo sapiens [3]) of 5.67 nM.
With `Nc1nc2c(c(=O)[nH]1)C[C@@H](CCc1ccc(C(=O)N[C@@H](C[C@@H](F)C(=O)O)C(=O)O)cc1)CN2` the IC50 (Homo sapiens [2]) was 2930 nM and the IC50 (Homo sapiens [3]) was 2300 nM.
In the case of `COc1cccc2c(=O)n(Cc3ccccc3)c(SCCCN3C(=O)c4ccccc4C3=O)nc12`, the IC50 (HeLa) is reported as 1850 nM and the IC50 (MDA-MB-231) is reported as 1850 nM.
Work on `COc1cc2nc(-c3ccccc3F)nc(O)c2cc1OC` yielded a selectivity ratio [4] of 9.17, an EC50 [5] of 10900 nM and an IC50 [5] of 100000 nM.
`Clc1cccc(Cl)c1NC1=NCCN1` [CLONIDINE] showed an ED30 (Oryctolagus cuniculus) of 0.065 mg/kg.
`Nc1ccc(-c2nc(O)c3cc4c(cc3n2)OCO4)cc1` showed an ED50 (Mus musculus [6]) of 21.6 µmol/kg and an ED50 (Mus musculus [7]) of 36.5 µmol/kg.
With `CCc1nnc2n(-c3cccc(C)c3)c(=O)c3ccccc3n12` the Activity (Mus musculus [8]) was 4%.
Compound `Nc1ccc(-c2nc(S)c3cc4c(cc3n2)OCO4)cc1` has an ED50 (Mus musculus [6]) of 36.6 µmol/kg and an ED50 (Mus musculus [7]) of 68.3 µmol/kg.
With `CCCc1nnc2n(-c3cccc(C)c3)c(=O)c3ccccc3n12` the Activity (Mus musculus [8]) was 4%.
`O=C(O)c1ccc(Cl)cc1-n1c(/C=C/c2ccc([N+](=O)[O-])cc2)nc2ccccc2c1=O` gave an inhibition in vivo at 200 mg/kg (Rattus norvegicus [9]) of 62.2%.
With `NC1=NCc2ccccc2C(=O)N1` the EC50 [1] was 650000 nM.
Compound `Nc1nc(O)c2c(Cl)c(CNc3ccc(C(=O)NC(CCC(=O)O)C(=O)O)cc3)ccc2n1` (stereo unspecified) has an IC50 (CCRF-CEM) of 1800 nM and an IC50 (WIL2) of 1800 nM.
Work on `CC(=O)Nc1ccc2nc(CSCC(NC(C)=O)C(=O)O)n(-c3ccccc3C)c(=O)c2c1` (stereo unspecified) yielded an LD50 [10] of over 1000 mg/kg.
For `O=c1c2ccccc2nc(-c2ccncc2)n1CCCN1CCOCC1`, the Time (Mus musculus [11]) was 7.1 min.
With `CC(/N=N/n1cnc2ccccc2c1=O)=N\Nc1ccc(O)cc1` the Activity [12] was 15%.
`Cc1ccc2nc(SCCCN3C(=O)c4ccccc4C3=O)n(Cc3ccccc3)c(=O)c2c1` gave an IC50 (HeLa) of 1850 nM and an IC50 (MDA-MB-231) of 1850 nM.
`COc1cc2nc(-c3ccc4ccccc4c3)nc(O)c2cc1OC` showed a selectivity ratio [4] of 13.2, an EC50 [5] of 7590 nM and an IC50 [5] of 100000 nM.
Work on `CC(=O)Nc1ccc2nc(C[S+](C)[O-])n(-c3ccccc3C)c(=O)c2c1` (stereo unspecified) yielded an LD50 [10] of over 1000 mg/kg.
For `Oc1nc(-c2ccc(F)cc2)nc2cc3c(cc12)OCO3`, the ED50 (Mus musculus [6]) was 17.7 µmol/kg.
In the case of `CC(/N=N/n1cnc2ccccc2c1=O)=N\Nc1ccc(C)cc1`, the Activity [12] is reported as 15%.
`CC(=O)Nc1ccc2nc(CO)n(-c3ccccc3C)c(=O)c2c1` gave an LD50 [10] of over 1000 mg/kg.
For `Nc1nc(N)c2c(CCCc3ccc(C(=O)N[C@@H](C[C@@H](F)C(=O)O)C(=O)O)cc3)c[nH]c2n1`, the IC50 (Homo sapiens [2]) was 2930 nM and the IC50 (Homo sapiens [3]) was 1410 nM.
For `CCOC(=O)c1c(C)cc2nc(COC(=O)NC)n(-c3ccccc3Cl)c(=O)c2c1C`, the ED30 (Oryctolagus cuniculus) was 2.8 mg/kg.
Compound `CC(=O)Oc1ccccc1C(=O)O` [ASPIRIN] has an inhibition in vivo at 10 mg/kg (Mus musculus [13]) of 20% and an inhibition in vivo at 10 mg/kg (Mus musculus [14]) of 60%.
`COC(=O)CCC(NC(=O)c1ccc(N(C)Cc2ccc3nc(C)[nH]c(=O)c3c2)s1)C(=O)OC` (stereo unspecified) gave an IC50 (CCRF-CEM) of 2100 nM and an IC50 (WIL2) of 1800 nM.
For `COc1cccc2c(=O)n(Cc3ccccc3)c(SCCN3CCOCC3)nc12`, the IC50 (HeLa) was 1850 nM and the IC50 (MDA-MB-231) was 1850 nM.
With `CCOC(=O)c1c(C)cc2nc(COC(=O)NC(C)C)n(-c3ccccc3Cl)c(=O)c2c1C` the ED30 (Oryctolagus cuniculus) was 0.42 mg/kg.
`Cc1nc2ccccc2c(=O)n1NCN1CCOCC1` gave an Activity [15] of 25% and an Activity [16] of 21%.
Compound `COc1cc(N/N=C(C)/N=N/n2cnc3ccccc3c2=O)ccc1O` has an Activity [12] of 15%.
`COC(=O)CCC(NC(=O)c1ccc(NCc2ccc3nc(N)[nH]c(=O)c3c2Cl)s1)C(=O)OC` (stereo unspecified) showed an IC50 (CCRF-CEM) of 2100 nM and an IC50 (WIL2) of 1800 nM.
`CCCCS(=O)(=O)NC(CCCc1ccc2c(c1)c(=O)n(CCC1CCNCC1)c(=O)n2Cc1ccncc1)C(=O)O` (stereo unspecified) showed an IC50 (Canis familiaris) of 210 nM.
For `O=c1c2c(Br)cc(Br)cc2nc(-c2ccccc2)n1-c1nc2ccccc2s1`, the Activity (Rattus norvegicus [17]) was 21.3%.
`Oc1nc(-c2ccc(Cl)cc2)nc2cc3c(cc12)OCO3` showed an ED50 (Mus musculus [7]) of 32.7 µmol/kg.
`CNC(=C[N+](=O)[O-])NCCSCc1ccc(CN(C)C)o1` showed an ED50 [18] of 12.3 mg/kg and a pKb [18] of 7.06.
`CC(=O)Nc1ccc2nc(CS(C)(=O)=O)n(-c3ccccc3C)c(=O)c2c1` showed an LD50 [10] of over 1000 mg/kg.
In the case of `COc1ccc(/C=C/c2nc3ccccc3c(=O)n2-c2cc(C(=O)O)ccc2Cl)cc1`, the inhibition in vivo at 200 mg/kg (Rattus norvegicus [9]) is reported as 62.2%.
Work on `NC1=Nc2ccccc2C2(CC2)N1` yielded an EC50 [1] of 100000 nM.
